# Data published in patent US20210164015A1, “ANTIMICROBIAL SUSCEPTIBILITY TESTING USING MICRODROPLETS” (Becton, Dickinson and Company, priority 2018, published 2021).
# Tested on: E. coli
# Experiment: microdroplet antibiotic susceptibility testing (AST) using a fluorescent viability indicator
# Assay type: cell-based
# Details: for fluorescence intensity of microdroplets (fluorescent viability indicator): E. coli encapsulated in microdroplets
# From the text: FIGS. 3A-3D depict results of an embodiment of microdroplet antibiotic susceptibility testing using a fluorescent viability indicator. FIG. 3A depicts change in fluorescent intensity in microdroplets at 1-hour, 2-hour, and 3-hour time points in samples without antibiotic (condition A) and samples with antibiotic at two times MIC (condition B). FIG. 3B depicts micrographs of microdroplets under the conditions of FIG. 3A.
# Some embodiments provided herein relate to a first mode for determining microbial viability. A first mode for determining microbial viability is schematically depicted in FIG. 1. As described herein, a first mode for determining microbial viability includes providing a sample having microbes therein, dividing the sample into a number of portions, preparing microdroplets encapsulating microbes from the sample, either before or after the portions are formed (FIG. 1 depicts forming portions first), contacting each portion to a different concentration of an antimicrobial of interest either before or after preparing the microdroplets (FIG. 1 depicts adding an antibiotic prior to forming microdroplets), and measuring viability of the microbes by measuring a signal of microbial viability. Measuring a signal of microbial viability may be performed by obtaining a measure of microbial viability from a discrete subset of microdroplets, or a plurality of discrete subsets of microdroplets, from a population of microdroplets. The results for the measurements from discrete subsets of microdroplets at a first time point can then be combined to generate a result for the portion of the sample from which the microdroplet(s) were taken at this first time point. This process can be repeated at additional time points to determine microbial viability in that portion over time, thereby determining the susceptibility of the microbe to a given concentration of antimicrobial. Typically, it is not necessary to measure the exact same population of microdroplets at the first and subsequent time points, as long as the population of microdroplets measured at each time point are representative of the portion of the sample from which they are taken. The results from the various portions exposed to different concentrations of antimicrobial can then be used to determine the susceptibility of the microbe to the antimicrobial. […] Conversely, an increase in the measure of microbial viability over time indicates growth of microbes in the concentration of antimicrobial present in the portion of the sample from which the measurements were made. A minimum inhibitory concentration can be determined utilizing the results of antimicrobial susceptibility and/or microbe growth from the several portions of the sample exposed to different concentrations of antimicrobial. […]
compound,measurement,setting,value
CC1(C)S[C@@H]2[C@H](NC(=O)[C@H](N)c3ccccc3)C(=O)N2[C@H]1C(=O)O [ampicillin],fluorescence intensity of microdroplets (fluorescent viability indicator),"antibiotic at 2×MIC (Condition B), 1 hour incubation (t1)",remained low
same,fluorescence intensity of microdroplets (fluorescent viability indicator),"antibiotic at 2×MIC (Condition B), 2 hours and 3 hours incubation (t2, t3)",remained low
same,E. coli growth in microdroplets,"antibiotic at 2×MIC (Condition B), 2 hours and 3 hours, inferred from fluorescence intensity",no E. coli growth
same,presence of E. coli in micrographs of microdroplets (FIG. 3D),microdroplets exposed to antibiotic at 2×MIC (Condition B),no E. coli is present
